This note sets out measurements from patent US12503476B2, “Ring-fused 2-pyridone compounds, methods for preparation thereof and their use in the treatment and/or prevention of a disease involving gram-positive bacteria” (QURETECH BIO AB, priority 2020, dated 2025).

Test [1] concerns MRSA. Description: Minimum Bactericidal Concentration (MBC) assay, MRSA. The conditions noted are these: Staphylococcus aureus, MRSA.
In a further test the test system is MRSA 1369. The experiment in a line: Combined activity with gentamicin, vancomycin or ampicillin, MRSA 1369. It is filed as cell-based, Methicillin-resistant Staphylococcus aureus. The conditions noted are these: subinhibitory compound 1-4 μM, OD600 24 h; for MRSA activity, combination with ampicillin compared to ampicillin alone or compound alone: ampicillin 16 μg/ml; for MRSA activity, combination with vancomycin compared to vancomycin alone or compound alone: vancomycin 1 μg/ml. The protocol:
(§1) […]. The concentrations used in the experiments with E. faecalis OG1RF were 16 μg/ml gentamicin, 1 μg/ml vancomycin or 1 μg/ml ampicillin. In experiments where combinations were tested against MRSA 1369, 0.05 μg/ml gentamicin, 1 μg/ml vancomycin or 16 μg/ml ampicillin was used.
(§2) Bacterial cultures (190 μl) at a starting OD=0.001 at OD600 were incubated together with either subinhibitory concentrations of gentamicin/vancomycin/ampicillin or compound alone, or a combination of the two. The cultures (200 μl) were incubated at 37° C. for 24 h. A control sample without compound and gentamicin/vancomycin/ampicillin but containing compound vehicle (DMSO) and gentamicin/vancomycin/ampicillin vehicle (MQ water) was performed the same way. After 24 h, the effect on bacterial growth compared to untreated control samples was determined by measuring optical density at 600 nm with a spectrophotometer.

In the next test the test system is E. faecalis OG1RF. The experiment in a line: Combined activity with gentamicin, vancomycin or ampicillin, E. faecalis OG1RF. The format is cell-based, Enterococcus faecalis. The conditions noted are these: for OD600 at 24 h when combined with gentamicin / Synergistic effect when combined with gentamicin: compound 1 μM; for OD600 at 24 h when combined with gentamicin / Synergistic effect when combined with gentamicin / E. faecalis activity, combination with gentamicin compared to gentamicin alone, compound alone and comparative example alone / E. faecalis activity, combination with gentamicin compared to the combination of the comparative example and gentamicin: gentamicin 16 μg/ml; for Synergistic effect when combined with gentamicin: 24 h, n.d. = activity not observed; for E. faecalis activity, combination with gentamicin compared to gentamicin alone, compound alone and comparative example alone / E. faecalis activity, combination with gentamicin compared to the combination of the comparative example and gentamicin / E. faecalis activity, combination with vancomycin compared to vancomycin alone or compound alone: subinhibitory compound 1-4 μM, OD600 24 h; for E. faecalis activity, combination with vancomycin compared to vancomycin alone or compound alone: vancomycin 1 μg/ml. As for the experimental part:
as §1, §2
[…]. MIC/MBC values for the compounds administered alone are also shown for comparison. Unless otherwise stated, the compound was provided in a concentration of 1 μM.

For test [2], the system named is E. faecalis. The experiment in a line: Minimum Inhibitory Concentration (MIC) assay, E. faecalis. The format is cell-based, Enterococcus faecalis. The following applies: for MIC: Enterococcus faecalis, read-out: MIC for E. faecalis; for Growth inhibition of the pathogen of interest compared to the compound of Example 14 in WO 2018/229141: conclusion from Table 3 (E. faecalis and MRSA). As for the experimental part:
(§3) The cultures (200 μl) were incubated at 37° C. for 24 h. […] The MIC was measured in micromolar concentration, i.e. μM. Objectively, this was determined by measuring the optical density (i.e. OD) of the test cultures at 600 nm using a spectrophotometer. As used herein, OD600 stands for optical density at a wavelength of 600 nm (i.e. 600 nanometers).

In test [3] the test system is MRSA. Description: Minimum Inhibitory Concentration (MIC) assay, MRSA. The format is cell-based, Methicillin-resistant Staphylococcus aureus. The conditions noted are these: Staphylococcus aureus, MRSA, 24 h, read-out: MIC for MRSA. The protocol:
as §3

Test [4] deals with E. faecalis. The experiment in a line: Minimum Bactericidal Concentration (MBC) assay, E. faecalis. The conditions noted are these: Enterococcus faecalis, read-out: MBC for E. faecalis.
The mark [5] stands for this setting: read-out: MBC for MRSA, Table 3, compound alone, no antibiotic, MIC cultures plated on BHI, second figure of MIC/MBC, n.d. = activity not observed at the concentrations tested.
[6] abbreviates: 24 h, Table 3, compound alone, no antibiotic, 24 h, 37° C., OD600, first figure of MIC/MBC, n.d. = activity not observed at the concentrations tested.
Setting [7] is: Table 4, compound administered alone, first figure of MIC/MBC, n.d. = activity not observed.
The mark [8] stands for this setting: Table 3, compound alone, no antibiotic, 37° C., OD600, first figure of MIC/MBC, n.d. = activity not observed at the concentrations tested.

Molecules are shown by their SMILES. Converted amounts (≈) assume the structure as drawn. Read-outs that look alike come from different tables or passages of the source.

One may read the MBC as the lowest tested concentration that kills the bacteria rather than only halting them. Usually MIC stands for the smallest concentration in the dilution series that meets the test's criterion for growth inhibition. For `O=C(O)C12C[C@@H](c3cc(Cl)cc(Cl)c3)C1Sc1c(C3CC3)c(Cc3cccc4ccccc34)cc(=O)n12` (stereo partly shown) [Example 15], the MBC with MRSA [1] (setting [5]) stood at 4 µM (≈ 2.19 µg/mL). For the same molecule, in the test with MRSA 1369, the “MRSA activity, combination with ampicillin compared to ampicillin alone or compound alone” value was “much larger extent” and the “MRSA activity, combination with vancomycin compared to vancomycin alone or compound alone” value is “much larger extent”. In the test with E. faecalis OG1RF, the “OD600 at 24 h when combined with gentamicin” value (from here on “OD600 at 24 h when combined”) is given as “OD600 = 0”; the “Synergistic effect when combined with gentamicin” value (“Synergistic effect when combined” below) is “Yes”; the “E. faecalis activity, combination with gentamicin compared to gentamicin alone, compound alone and comparative example alone” value is “much larger extent”; the “E. faecalis activity, combination with gentamicin compared to the combination of the comparative example and gentamicin” value is reported as “much larger extent”. Further, in the test with E. faecalis [2] (setting [6]), the MIC was determined as 3 µM (≈ 1.65 µg/mL). Further, the MIC with E. faecalis [2] (setting [7]) was 3 µM (≈ 1.65 µg/mL). Moreover, in the test with E. faecalis [2] (compound alone), the “Growth inhibition of the pathogen of interest compared to the compound of Example 14 in WO 2018/229141” value is reported as “substantially similar extent or to a higher extent”. Besides, the minimal inhibitory concentration (MIC) in the test on MRSA [3] (setting [8]) was 2 µM (≈ 1.1 µg/mL).
As to `O=C(O)C12C[C@@H](c3cccc(Br)c3)C1Sc1c(C3CC3)c(Cc3cccc4ccccc34)cc(=O)n12` (stereo partly shown) [Example 17], the minimum bactericidal concentration (MBC) in the test with MRSA [1] (setting [5]) came to 7.5 µM (≈ 4.19 µg/mL). In the test on E. faecalis OG1RF, the “OD600 at 24 h when combined” value is recorded as “OD 600 = 0”; the “Synergistic effect when combined” value is listed as “Yes”; the “E. faecalis activity, combination with gentamicin compared to gentamicin alone, compound alone and comparative example alone” value is on record as “much larger extent”; the “E. faecalis activity, combination with gentamicin compared to the combination of the comparative example and gentamicin” value is on record as “much larger extent”. The MIC in the test on E. faecalis [2] (setting [6]) was 4 µM (≈ 2.23 µg/mL). Besides, in the test on E. faecalis [2] (setting [7]), the MIC came out at 4 µM (≈ 2.23 µg/mL). Further, the “Growth inhibition of the pathogen of interest compared to the compound of Example 14 in WO 2018/229141” value in the test with E. faecalis [2] (compound alone) is listed as “substantially similar extent or to a higher extent”. Moreover, in the test on MRSA [3] (setting [8]), the MIC worked out at 3 µM (≈ 1.68 µg/mL). For the same molecule, the MBC in the test with E. faecalis [4] was 25 µM (≈ 14 µg/mL).
For the molecule `Cc1cccc([C@@H]2CC3(C(=O)O)C2Sc2c(C4CC4)c(Cc4cccc5ccccc45)cc(=O)n23)c1` (stereo partly shown) [Example 19A], the minimal bactericidal concentration (MBC) in the test with MRSA [1] (read-out: MBC for MRSA) was determined as 10 µM (≈ 4.94 µg/mL); in the test on E. faecalis [4] it was 25 µM (≈ 12.3 µg/mL). In addition, the “Synergistic effect when combined” value with E. faecalis OG1RF was “Yes”. The MIC in the test on E. faecalis [2] (24 h) amounted to 7.5 µM (≈ 3.7 µg/mL); with E. faecalis [2] it was 7.5 µM (≈ 3.7 µg/mL); in the test on MRSA [3], 5 µM (≈ 2.47 µg/mL). Besides, in the test with E. faecalis [2] (compound alone), the “Growth inhibition of the pathogen of interest compared to the compound of Example 14 in WO 2018/229141” value is “substantially similar extent or to a higher extent”.
As to `Cc1cc(C)cc([C@@H]2CC3(C(=O)O)C2Sc2c(C4CC4)c(Cc4cccc5ccccc45)cc(=O)n23)c1` (stereo partly shown) [Example 21], the values for the MBC in the test with MRSA [1] (setting [5]) and in the test on E. faecalis [4] were 7.5 µM (≈ 3.81 µg/mL) and 25 µM (≈ 12.7 µg/mL), respectively. Moreover, the “OD600 at 24 h when combined” value in the test on E. faecalis OG1RF is recorded as “OD600 = 0.1”. Besides, the “Synergistic effect when combined” value in the test with E. faecalis OG1RF is listed as “Yes”. The “E. faecalis activity, combination with gentamicin compared to gentamicin alone, compound alone and comparative example alone” value in the test with E. faecalis OG1RF is reported as “much larger extent”. Besides, the MIC with E. faecalis [2] (setting [6]) is 5 µM (≈ 2.54 µg/mL); in the test with E. faecalis [2] (setting [7]) it was 5 µM (≈ 2.54 µg/mL); in the test with MRSA [3] (setting [8]), 3 µM (≈ 1.52 µg/mL). Moreover, the “Growth inhibition of the pathogen of interest compared to the compound of Example 14 in WO 2018/229141” value in the test with E. faecalis [2] (compound alone) is listed as “substantially similar extent or to a higher extent”.
For the molecule `O=C(O)C12C[C@@H](c3cccc(Cl)c3)C1Sc1c(C3CC3)c(Cc3cc4ccccc4s3)cc(=O)n12` (stereo partly shown) [Example 30], in the test on MRSA 1369 (gentamicin 0.05 μg/ml), the “MRSA activity, combination with gentamicin compared to gentamicin alone or compound alone” value is “much larger extent”. Besides, the “MRSA activity, combination with vancomycin compared to vancomycin alone or compound alone” value with MRSA 1369 is on record as “much larger extent”. Besides, in the test on E. faecalis OG1RF, the “E. faecalis activity, combination with gentamicin compared to gentamicin alone, compound alone and comparative example alone” value is “much larger extent”; the “E. faecalis activity, combination with gentamicin compared to the combination of the comparative example and gentamicin” value was “much larger extent”; the “E. faecalis activity, combination with vancomycin compared to vancomycin alone or compound alone” value was “much larger extent”. Moreover, the MIC with E. faecalis [2] (setting [6]) was 5 µM (≈ 2.6 µg/mL). In the test on MRSA [3] (setting [8]), the MIC was 5 µM (≈ 2.6 µg/mL).
Consider `O=C(O)C12C[C@@H](c3c(Cl)cccc3Cl)C1Sc1c(C3CC3)c(Cc3cccc4ccccc34)cc(=O)n12` (stereo partly shown) [Example 33], for which, in the test on MRSA 1369, the “MRSA activity, combination with ampicillin compared to ampicillin alone or compound alone” value is “much larger extent” and the “MRSA activity, combination with vancomycin compared to vancomycin alone or compound alone” value is recorded as “much larger extent”. In addition, in the test with E. faecalis OG1RF, the “E. faecalis activity, combination with gentamicin compared to gentamicin alone, compound alone and comparative example alone” value is “much larger extent”; the “E. faecalis activity, combination with gentamicin compared to the combination of the comparative example and gentamicin” value is on record as “much larger extent”; the “E. faecalis activity, combination with vancomycin compared to vancomycin alone or compound alone” value is “much larger extent”. In addition, the MIC in the test on E. faecalis [2] (setting [6]) was determined as 5 µM (≈ 2.74 µg/mL). Further, the “Growth inhibition of the pathogen of interest compared to the compound of Example 14 in WO 2018/229141” value in the test on E. faecalis [2] (compound alone) is listed as “substantially similar extent or to a higher extent”. Also, the MIC with MRSA [3] (setting [8]) was determined as 5 µM (≈ 2.74 µg/mL).
